The values that follow come from patent US9426986B2, “Hyperbranched polycarbonates for solubilizing poorly soluble active substances” (BASF SE, priority 2009, dated 2016).

Values after ≈ are worked out from the molar mass of the structure shown.

A short description of series [1]: Solubilization experiments, general procedure 1 (active ingredient content by UV spectroscopy or HPLC). Particulars: pH 7, aqueous buffer, thermodynamic from solid. The protocol: Approximately 2 g of polymer were weighed out into a 50 mL glass beaker. Then 0.2 g of each active ingredient was weighed into the batch to give a supersaturated solution. […] The mixture was then stirred at room temperature for 72 hours, using a magnetic stirrer. After a rest time of one hour, unsolubilized active ingredient was removed by filtration. The resulting clear or opaque solution was then analyzed for its active ingredient content by means of UV spectroscopy or HPLC.

The procedure of series [2]: Approximately 100 mg of polymer were weighed out into a 50 mL glass beaker and dissolved in 9.900 g of distilled water. Then 100 mg of each active ingredient was weighed into the batch to give a supersaturated solution. The mixture was then stirred at room temperature for 24 hours, using a magnetic stirrer. After a rest time of one hour, unsolubilized active ingredient was removed by centrifuging. The resulting clear or opaque solution was then analyzed for its active ingredient content by means of UV spectroscopy.
The solubility was determined as described in procedure 2.

As usually defined, the solubility is the concentration that dissolves in the medium under given conditions. A higher solubility goes with much dissolved substance. For the molecule `NC(=O)N1c2ccccc2C=Cc2ccccc21` [Carbamazepine], the concentration in solution in series [1] (solubility at 72 h) was 140 µg/mL (≈ 593 µM).
`Clc1ccccc1C(c1ccccc1)(c1ccccc1)n1ccnc1` [Clotrimazole] displayed a solubility at 72 h in series [1] of less than 100 µg/mL.
In turn, `CN1C(C(=O)Nc2ccccn2)=C(O)c2ccccc2S1(=O)=O` [Piroxicam] came in with a solubility at 72 h in series [1] of 420 µg/mL (≈ 1270 µM).
Turning to “polyethylene glycol monomethyl ether [PEG monomethyl ether]”, the “Solubility of Fipronil in the presence of polymer” value in series [2] was determined as 6 µg/mL.
